What was measured:
Format in all cases: physicochemical
[1] = Lipid nanoparticle size and polydispersity by dynamic light scattering (Malvern Zetasizer Nano ZS); details: LNP of cationic lipid/DSPC/cholesterol/PEG-lipid 50:10:38.5:1.5 with mRNA
Protocol: (§1) Briefly, a cationic lipid provided herein, DSPC, cholesterol, and PEG-lipid were solubilized in ethanol at a molar ratio of 50:10:38.5:1.5, and mRNA were diluted in 10 to 50 mM citrate buffer, pH=4. The LNPs were prepared at a total lipid to mRNA weight ratio of approximately 10:1 to 30:1 by mixing the ethanolic lipid solution with the aqueous mRNA solution at a volume ratio of 1:3 using a microfluidic apparatus, total flow rate ranging from 9-30 mL/min. Ethanol were thereby removed and replaced by DPBS using dialysis. Finally, the lipid nanoparticles were filtered through a 0.2 μm sterile filter.
(§2) Lipid nanoparticle size were determined by dynamic light scattering using a Malvern Zetasizer Nano ZS (Malvern UK) using a 173° backscatter detection mode. The encapsulation efficiency of lipid nanoparticles were determined using a Quant-it Ribogreen RNA quantification assay kit (Thermo Fisher Scientific, UK) according to the manufacturer's instructions.

[2] = Apparent pKa of LNP formulations, TNS fluorescence assay; details: LNP cationic lipid/DSPC/cholesterol/DMG-PEG 50/10/38.5/1.5 mol %, pH 3 to 9
Protocol: As reported in literature, the apparent pKa of LNP formulations correlates with the delivery efficiency of LNPs for nucleic acids in vivo. The apparent pKa of each formulation was determined using an assay based on fluorescence of 2-(p-toluidino)-6-napthalene sulfonic acid (TNS). LNP formulations comprising of cationic lipid/DSPC/cholesterol/DMG-PEG (50/10/38.5/1.5 mol %) in PBS were prepared as described above. TNS was prepared as a 300 uM stock solution in distilled water. LNP formulations were diluted to 0.1 mg/ml total lipid in 3 mL of buffered solutions containing 50 mM sodium citrate, 50 mM sodium phosphate, 50 mM sodium borate, and 30 mM sodium chloride where the pH ranged from 3 to 9. An aliquot of the TNS solution was added to give a final concentration of 0.1 mg/ml and following vortex mixing fluorescence intensity was measured at room temperature in a Molecular Devices Spectramax iD3 spectrometer using excitation and mission wavelengths of 325 nm and 435 nm. A sigmoidal best fit analysis was applied to the fluorescence data and the pKa value was measured as the pH giving rise to half-maximal fluorescent intensity.

[3] = Encapsulation efficiency of lipid nanoparticles, Quant-it Ribogreen RNA quantification assay; details: LNP with mRNA
Protocol: as §1, §2

Structure (SMILES): CCCCCCCCC(CCCCCCCC)CNC(=O)CCOCC(CN(C)CCN(CCO)C1CCC1)OCCC(=O)NCC(CCCCCCCC)CCCCCCCC (stereo not drawn) [Compound 51]
- polydispersity [1]: 0.057
- size (nm) [1]: 75.11 nm
- Apparant Pka [2]: 7.727
- Encapsulation Efficiency [3]: 94.7%

Structure (SMILES): CCCCCCCCCCCCCCCCOCC(CN(CCCCCC(=O)OCCCCCCCCCC)CCN(CCO)C1CCC1)OCCCCCC (stereo not drawn) [Compound 53]
- polydispersity [1]: 0.014
- size (nm) [1]: 90.06 nm
- Apparant Pka [2]: 6.069
- Encapsulation Efficiency [3]: 89.79%

Structure (SMILES): CCCCCCCCC(CCCCCCCC)COC(=O)CCOCC(CN(C)CCN(CCO)C1CCC1)OCCC(=O)OCC(CCCCCCCC)CCCCCCCC (stereo not drawn) [Compound 55]
- polydispersity [1]: 0.034
- size (nm) [1]: 75.43 nm
- Apparant Pka [2]: 6.851
- Encapsulation Efficiency [3]: 89.5%

Structure (SMILES): CCCCCCCCC(CCCCCCCC)CC(=O)OCC(CCCCN(CCO)C1CCC1)COC(=O)CC(CCCCCCCC)CCCCCCCC [Compound 56]
- polydispersity [1]: 0.107
- size (nm) [1]: 53.32 nm
- Apparant Pka [2]: 6.403
- Encapsulation Efficiency [3]: 91.0%

Structure (SMILES): CCCCCCCCC(CCCCCCCC)CNC(=O)CCOCC(CN(C)CCN(CCO)C1CCCC1)OCCC(=O)NCC(CCCCCCCC)CCCCCCCC (stereo not drawn) [Compound 57]
- polydispersity [1]: 0.055
- size (nm) [1]: 70.05 nm
- Apparant Pka [2]: 7.73
- Encapsulation Efficiency [3]: 97.0%

Structure (SMILES): CCCCCCCCC(CCCCCCCC)CC(=O)OCC(CCCCN(CCO)C1CCC1)COC(=O)CCCCC (stereo not drawn) [Compound 60]
- polydispersity [1]: 0.068
- size (nm) [1]: 73.31 nm
- Apparant Pka [2]: 6.985
- Encapsulation Efficiency [3]: 92.6%

Structure (SMILES): CCCCCCCCC(CCCCCCCC)CNC(=O)CCOC(COCCC(=O)OCC(CCCCCCCC)CCCCCCCC)CN(C)CCN(CCO)C1CCC1 (stereo not drawn) [Compound 61]
- polydispersity [1]: 0.055
- size (nm) [1]: 70.83 nm
- Apparant Pka [2]: 7.219
- Encapsulation Efficiency [3]: 96.2%

Structure (SMILES): CCCCCCCCCCCC(=O)OCC(CN(CCCCCC(=O)OCC(CCCCCC)CCCCCC)CCN1CCC(O)C1)OC(=O)CCCCC (stereo not drawn) [Compound 62]
- polydispersity [1]: 0.075
- size (nm) [1]: 58.44 nm
- Apparant Pka [2]: 7.062
- Encapsulation Efficiency [3]: 94.1%

Structure (SMILES): CCCCCCC(CCCCCC)COC(=O)CCCCCN(CCN1CCC(O)C1)CC(COC(=O)CCCCC)OC(=O)CCCCC (stereo not drawn) [Compound 63]
- polydispersity [1]: 0.076
- size (nm) [1]: 150.2 nm
- Apparant Pka [2]: 6.928
- Encapsulation Efficiency [3]: 95.9%

Structure (SMILES): CCCCCCCCC(CCCCCCCC)CC(=O)OCC(CCCCN(CCN(C)CCO)C1CCC1)COC(=O)CC(CCCCCCCC)CCCCCCCC [Compound 65]
- polydispersity [1]: 0.082
- size (nm) [1]: 73.61 nm
- Apparant Pka [2]: 6.428
- Encapsulation Efficiency [3]: 97.0%

Structure (SMILES): CCCCCCCCC(CCCCCCCC)CC(=O)OCC(CCCCN(C)CCN(CCO)C1CCC1)COC(=O)CC(CCCCCCCC)CCCCCCCC [Compound 66]
- polydispersity [1]: 0.044
- size (nm) [1]: 72.85 nm
- Apparant Pka [2]: 6.749
- Encapsulation Efficiency [3]: 96.6%

Structure (SMILES): CCCCCCCCC(CCCCCCCC)CC(=O)OCC(CCCCN(CC)CCN(CCO)C1CCC1)COC(=O)CC(CCCCCCCC)CCCCCCCC [Compound 67]
- polydispersity [1]: 0.116
- size (nm) [1]: 130.6 nm
- Apparant Pka [2]: 6.444
- Encapsulation Efficiency [3]: 91.83%

Structure (SMILES): CCCCCCCCC(CCCCCC)CC(=O)OCC(CCCCN(CCO)C1CCCCC1)COC(=O)CC(CCCCCC)CCCCCCCC (stereo not drawn) [Compound 68]
- polydispersity [1]: 0.084
- size (nm) [1]: 55.01 nm
- Apparant Pka [2]: 6.22
- Encapsulation Efficiency [3]: 89.42%

Structure (SMILES): CCCCCCCCC(CCCCCC)CC(=O)OCC(CCCCN(CCN(CC)CCO)C1CCC1)COC(=O)CC(CCCCCC)CCCCCCCC (stereo not drawn) [Compound 69]
- polydispersity [1]: 0.013
- size (nm) [1]: 110.30 nm
- Apparant Pka [2]: 6.789
- Encapsulation Efficiency [3]: 91.81%

Structure (SMILES): CCCCCCCCC(CCCCCCCC)COC(=O)CCOCC(CN(C)CCN(CCO)C1CC1)OCCC(=O)OCC(CCCCCCCC)CCCCCCCC (stereo not drawn) [Compound 70]
- polydispersity [1]: 0.049
- size (nm) [1]: 78.45 nm
- Apparant Pka [2]: 6.351
- Encapsulation Efficiency [3]: 93.32%

Structure (SMILES): CCCCCCCCC(CCCCCCCC)COC(=O)CCOCC(CN(C)CCN(CCO)C1CCCC1)OCCC(=O)OCC(CCCCCCCC)CCCCCCCC (stereo not drawn) [Compound 71]
- polydispersity [1]: 0.077
- size (nm) [1]: 76.45 nm
- Apparant Pka [2]: 6.727
- Encapsulation Efficiency [3]: 94.62%

Structure (SMILES): CCCCCCCCC(CCCCCCCC)COC(=O)CCOCC(CN(C)CCN(CCO)C1CCCCCC1)OCCC(=O)OCC(CCCCCCCC)CCCCCCCC (stereo not drawn) [Compound 73]
- polydispersity [1]: 0.088
- size (nm) [1]: 76.26 nm
- Apparant Pka [2]: 6.616
- Encapsulation Efficiency [3]: 94.69%

Structure (SMILES): CCCCCCCCC(CCCCCCCC)COC(=O)CCOCC(CN(C)CCN(CCO)C1CCCCCCC1)OCCC(=O)OCC(CCCCCCCC)CCCCCCCC (stereo not drawn) [Compound 74]
- polydispersity [1]: 0.031
- size (nm) [1]: 101.00 nm
- Apparant Pka [2]: 6.539
- Encapsulation Efficiency [3]: 93.97%

Structure (SMILES): CCCCCCCCC(CCCCCC)CC(=O)OCC(CCCCN(CC=C(C)C)CCO)COC(=O)CC(CCCCCC)CCCCCCCC (stereo not drawn) [Compound 77]
- polydispersity [1]: 0.046
- size (nm) [1]: 56.88 nm
- Apparant Pka [2]: 6.439
- Encapsulation Efficiency [3]: 89.92%

Structure (SMILES): CCCCCCCCC(CCCCCC)CC(=O)OCC(CCCCN(CC=C(C)C)CCN(CCO)C1CCC1)COC(=O)CC(CCCCCC)CCCCCCCC (stereo not drawn) [Compound 78]
- polydispersity [1]: 0.017
- size (nm) [1]: 159.72 nm
- Apparant Pka [2]: 6.166
- Encapsulation Efficiency [3]: 93.77%

Structure (SMILES): CCCCCCCCC(CCCCCC)CC(=O)OCC(CCCCN(CCN(CCO)C1CCC1)C1CCC1)COC(=O)CC(CCCCCC)CCCCCCCC (stereo not drawn) [Compound 79]
- polydispersity [1]: 0.01
- size (nm) [1]: 103.64 nm
- Apparant Pka [2]: 5.927
- Encapsulation Efficiency [3]: 91.29%

Structure (SMILES): CCCCCCCCC(CCCCCC)CC(=O)OCC(CCCCN(CCN(CCC)CCO)C1CCC1)COC(=O)CC(CCCCCC)CCCCCCCC (stereo not drawn) [Compound 80]
- polydispersity [1]: 0.027
- size (nm) [1]: 98.95 nm
- Apparant Pka [2]: 6.063
- Encapsulation Efficiency [3]: 92.20%

Structure (SMILES): CCCCCCCCCCC(=O)OCC(CCCCN(CCO)C1CCC1)COC(=O)CC(CCCCCC)CCCCCCCC (stereo not drawn) [Compound 81]
- polydispersity [1]: 0.023
- size (nm) [1]: 72.78 nm
- Apparant Pka [2]: 6.79
- Encapsulation Efficiency [3]: 88.28%

Structure (SMILES): CCCCCCCCCCC(=O)OCC(CCCCN(CCN(CCO)C1CCC1)C1CCC1)COC(=O)CC(CCCCCC)CCCCCCCC (stereo not drawn) [Compound 82]
- polydispersity [1]: 0.079
- size (nm) [1]: 84.46 nm
- Apparant Pka [2]: 6.621
- Encapsulation Efficiency [3]: 92.38%

Structure (SMILES): CCCCCCCCC(CCCCCC)CC(=O)OCC(CCCCN(CCCC)CCN(CCO)C1CCC1)COC(=O)CC(CCCCCC)CCCCCCCC (stereo not drawn) [Compound 83]
- polydispersity [1]: 0.019
- size (nm) [1]: 94.04 nm
- Apparant Pka [2]: 6.182
- Encapsulation Efficiency [3]: 92.39%

Structure (SMILES): CCCCCCCCCCC(=O)OCC(CCCCN(CCO)C1CCCC1)COC(=O)CC(CCCCCC)CCCCCCCC (stereo not drawn) [Compound 84]
- polydispersity [1]: 0.01
- size (nm) [1]: 83.05 nm
- Apparant Pka [2]: 6.785
- Encapsulation Efficiency [3]: 93.44%

Structure (SMILES): CCCCCCCCCCC(=O)OCC(CCCCN(CCO)C1CCCCC1)COC(=O)CC(CCCCCC)CCCCCCCC (stereo not drawn) [Compound 85]
- polydispersity [1]: 0.066
- size (nm) [1]: 74.14 nm
- Apparant Pka [2]: 6.438
- Encapsulation Efficiency [3]: 92.17%

— patent US11964052B2, “Lipid compounds and lipid nanoparticle compositions” (SUZHOU ABOGEN BIOSCIENCES CO., LTD., priority 2021, dated 2024)
